From patent publication US20230089247A1, “NOVEL COMPOUNDS SUITABLE FOR THE TREATMENT OF DYSLIPIDEMIA” (ZYDUS LIFESCIENCES LIMITED, priority 2019, published 2023)

Legend:
PCSK9 = PCSK9 (Homo sapiens, UniProt Q8NBP7); test: BODIPY-LDL uptake assay in HepG2 cells; type: cell-based; conditions: 5 μg/ml PCSK9, BODIPY-LDL
How it was run: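 Compounds pre-incubated 60 min with 5 μg/ml PCSK9 (0.2% DMSO), then added to HepG2 cells for 16 h; 1 μg/ml BODIPY-LDL added in serum-free medium for 5 h. Fluorescence (Ex 485/Em 520 nm) normalized to protein; PCSK9-only wells = 0%, no-PCSK9 wells = 100% uptake, giving percent increase in LDL uptake.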

High Fat Diet C57 Mice = test: LDL-C lowering activity in high fat diet C57 mice; type: in vivo; conditions: Mus musculus, po, 168 h; C57 mice on high fat diet; 30 mg/Kg orally once a day, 7 days treatment, blood on day 7; read-out: % Change Vs Vehicle Control in LDLc
Method: LDL-C Lowering Activity—in High Fat Diet C57 Mice
The in-vivo LDL-c lowering for test compound was tested in C57 mice which were kept on high fat diet for 4 weeks and the blood was collected by retro-orbital sinus puncture method under light ether anesthesia on day 0 (pretreatment). Animal are grouped based on LDL-c levels, after that 7 days treatment with vehicle or test compound orally at a dose of 30 mpk dose once a day was given. On completion of treatment on day 7 of the treatment the blood was collected for LDL-c and TC levels measurement.

Sequence of PCSK9 (Q8NBP7 153-692): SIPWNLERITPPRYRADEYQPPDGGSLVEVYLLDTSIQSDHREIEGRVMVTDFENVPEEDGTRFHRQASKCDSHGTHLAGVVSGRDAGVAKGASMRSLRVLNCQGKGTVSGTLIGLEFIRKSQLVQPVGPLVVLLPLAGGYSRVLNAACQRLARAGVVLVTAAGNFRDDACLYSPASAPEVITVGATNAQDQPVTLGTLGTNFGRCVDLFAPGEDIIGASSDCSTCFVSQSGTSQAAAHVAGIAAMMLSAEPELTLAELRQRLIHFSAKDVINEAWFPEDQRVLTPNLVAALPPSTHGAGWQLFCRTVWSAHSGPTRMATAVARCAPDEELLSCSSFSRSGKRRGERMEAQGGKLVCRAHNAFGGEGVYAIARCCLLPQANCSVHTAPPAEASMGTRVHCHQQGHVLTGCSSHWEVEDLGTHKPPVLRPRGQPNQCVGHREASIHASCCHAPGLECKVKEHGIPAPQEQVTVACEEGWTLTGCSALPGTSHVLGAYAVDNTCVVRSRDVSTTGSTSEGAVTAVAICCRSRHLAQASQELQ

Structure (SMILES)	% increase in LDL Uptake (PCSK9; 1 μM test compound) [%]	% increase in LDL Uptake (PCSK9; 10 μM test compound) [%]	% increase in LDL Uptake (PCSK9; 30 μM test compound) [%]	change in vivo at 30 mg/kg (High Fat Diet C57 Mice) [%]
O=C(c1cccc(C2(O)COC2)c1)N1CCC(c2ccc(C(F)(F)F)cc2)CC1 [Example 47, (3-(3-hydroxyoxetan-3-yl)phenyl)(4-(4-(trifluoromethyl)phenyl)piperidin-1-yl)methanone]	17	189	383	-5 ± 7
O=C(c1ccc(C2(O)COC2)cc1)N1CCCN(c2ccc(C(F)(F)F)cc2)CC1 [Example 184, (4-(3-hydroxyoxetan-3-yl)phenyl)(4-(4-(trifluoromethyl)phenyl)-1,4-diazepan-1-yl)methanone]	19	117	250	-7 ± 7
O=C(c1ccc(C2(O)COC2)cc1)N1CC2CC(O)(c3ccc(C(F)(F)F)cc3)CC2C1 (stereo not shown) [Example 105, (5-hydroxy-5-(4-(trifluoromethyl)phenyl)hexahydrocyclopenta[c]pyrrol-2(1H)-yl)(4-(3-hydroxyoxetan-3-yl)phenyl)methanone]	92	130	101	-7 ± 7
O=C(c1ccc(C2(O)COC2)cc1)N1CC=C(c2ccc(C(F)(F)F)cc2)CC1 [Example 87, (4-(3-hydroxyoxetan-3-yl)phenyl)(4-(4-(trifluoromethyl)phenyl)-5,6-dihydropyridin-1(2H)-yl)methanone]	77	115	94	-36 ± 5
O=C(c1ccc(C2(O)CCNC2)cc1)N1CCC(c2ccc(C(F)(F)F)cc2)CC1 (stereo not shown) [Example 152, (4-(3-hydroxypyrrolidin-3-yl)phenyl)(4-(4-(trifluoromethyl)phenyl)piperidin-1-yl)methanone]	0	0	31	–
CCOC1(c2ccc(C(=O)N3CC4=C(C3)CN(c3ccc(C(F)(F)F)cc3)C4)cc2)COC1 [Example 104, (4-(3-ethoxyoxetan-3-yl)phenyl)(5-(4-(trifluoromethyl)phenyl)-3,4,5,6-tetrahydropyrrolo[3,4-c]pyrrol-2(1H)-yl)methanone]	1	30	18	–
CC#CCOC1(c2ccc(C(=O)N3CCC(c4ccc(C(F)(F)F)cc4)CC3)cc2)COC1 [Example 70, (4-(3-(but-2-yn-1-yloxy)oxetan-3-yl)phenyl)(4-(4-(trifluoromethyl)phenyl)piperidin-1-yl)methanone]	0	26	14	–
CC(C)COC1(c2ccc(C(=O)N3CCC(c4ccc(C(F)(F)F)cc4)CC3)cc2)COC1 [Example 45, (4-(3-isobutoxyoxetan-3-yl)phenyl)(4-(4-(trifluoromethyl)phenyl)piperidin-1-yl)methanone]	19	9	4	–
COC1(c2ccc(C(=O)N3CCCN(c4ccc(C(F)(F)F)cc4)CC3)cc2)COC1 [Example 185, (4-(3-methoxyoxetan-3-yl)phenyl)(4-(4-(trifluoromethyl)phenyl)-1,4-diazepan-1-yl)methanone]	0	29	109	–
O=C(c1ccc(C2(O)CNC2)cc1)N1CCC(c2ccc(C(F)(F)F)cc2)CC1 [Example 155, (4-(3-hydroxyazetidin-3-yl)phenyl)(4-(4-(trifluoromethyl)phenyl)piperidin-1-yl)methanone]	0	0	58	–
CCS(=O)(=O)CCOC1(c2ccc(C(=O)N3CCC(c4ccc(C(F)(F)F)cc4)CC3)cc2)COC1 [Example 190, (4-(3-(2-(ethylsulfonyl)ethoxy)oxetan-3-yl)phenyl)(4-(4-(trifluoromethyl)phenyl)piperidin-1-yl)methanone]	0	90	62	–
COC1(c2cccc(C(=O)N3CC4CN(c5ccc(C(F)(F)F)cn5)CC4C3)c2)COC1 (stereo not shown) [Example 208, (3-(3-methoxyoxetan-3-yl)phenyl)(5-(5-(trifluoromethyl)pyridin-2-yl)hexahydropyrrolo[3,4-c]pyrrol-2 (1H)-yl)methanone]	56	14	189	–
O=C(Nc1ccc(C2(O)COC2)cc1)C1CCN(c2ccc(C(F)(F)F)cc2)CC1 [Example 3, N-(4-(3-hydroxyoxetan-3-yl)phenyl)-1-(4-(trifluoromethyl)phenyl) piperidine-4-carboxamide]	−2	39	34	–
O=C(c1cccc(C2(O)COC2)c1)N1CCc2scc(-c3ccc(C(F)(F)F)cc3)c2C1 [Example 176, (3-(3-hydroxyoxetan-3-yl)phenyl)(3-(4-(trifluoromethyl)phenyl)-6,7-dihydrothieno[3,2-c]pyridin-5(4H)-yl)methanone]	0	12	68	–
Cc1ccc(C2CCN(C(=O)c3ccc(C4(O)COC4)cc3)CC2)cc1Cl [Example 29, (4-(3-chloro-4-methylphenyl)piperidin-1-yl)(4-(3-hydroxyoxetan-3-yl)phenyl)methanone]	0	17	49	–
O=C(c1ccc(C2(O)COC2)cc1)N1CCC(c2ccc(C(F)F)cc2)CC1 [Example 69, (4-(4-(difluoromethyl)phenyl)piperidin-1-yl)(4-(3-hydroxyoxetan-3-yl)phenyl)methanone]	0	0	76	–
O=C(c1ccc(C2(OCCO)COC2)cc1)N1CC2CN(c3ccc(C(F)(F)F)cc3)CC2C1 (stereo not shown) [Example 12, (4-(3-(2-hydroxyethoxy)oxetan-3-yl)phenyl)(5-(4-(trifluoromethyl)phenyl)hexahydropyrrolo[3,4-c]pyrrol-2(1H)-yl)methanone]	21	32	34	–
COC1(c2ccc(C(=O)N3CCC(c4ccc(C(F)F)cc4)CC3)cc2)COC1 [Example 68, (4-(4-(difluoromethyl)phenyl)piperidin-1-yl)(4-(3-methoxyoxetan-3-yl)phenyl)methanone]	0	2	51	–
COc1ccc(C2CCN(C(=O)c3ccc(C4(O)COC4)cc3)CC2)cc1F [Example 28, (4-(3-fluoro-4-methoxyphenyl)piperidin-1-yl)(4-(3-hydroxyoxetan-3-yl)phenyl)methanone]	0	8	39	–
COC1(c2ccc(C(=O)N3CCC(c4ccc(C(F)(F)F)cc4)CC3)cc2)CCOCC1 [Example 143, (4-(4-methoxytetrahydro-2H-pyran-4-yl)phenyl)(4-(4-(trifluoromethyl)phenyl)piperidin-1-yl)methanone]	0	41	28	–
O=C(c1cccc(C2(O)COC2)c1)N1CCC2(CC1)CCN(c1ccc(C(F)(F)F)cc1)CC2 [Example 100, (3-(3-hydroxyoxetan-3-yl)phenyl)(9-(4-(trifluoromethyl)phenyl)-3,9-diazaspiro[5.5]undecan-3-yl)methanone]	29	0	0	–
COC1(c2cccc(C(=O)N3CCCC(c4ccc(C(F)(F)F)cc4)C3)c2)COC1 (stereo not shown) [Example 51, (3-(3-methoxyoxetan-3-yl)phenyl)(3-(4-(trifluoromethyl)phenyl)piperidin-1-yl)methanone]	11	79	131	–
O=C(c1ccc(C2(O)COC2)cc1)N1CCC(c2cc(F)cc(C(F)(F)F)c2)CC1 [Example 14, (4-(3-fluoro-5-(trifluoromethyl)phenyl)piperidin-1-yl)(4-(3-hydroxyoxetan-3-yl)phenyl)methanone]	0	20	122	–
